Patent publication US20110150980A1, “CGRP ANALOG” (VasoGenix Pharmaceuticals, Inc., priority 2009, published 2011)
Values belong to the molecule of their own block, whether it stands above or below them. Bridges are numbered along the chain shown (N, C = ends). Where no end group is shown, it is not given here.

What was measured:
[1] = test system: sedated Non Human Primate; experiment: IV infusion in the sedated Non Human Primate: blood pressure and heart rate (Example 1); type: in vivo
[2] = biological target: T1, CRLR/RAMP1 receptor (Homo sapiens, UniProt O60894+Q16602); experiment: CRE-luciferase assay in HEK293T cells transfected with CRLR and RAMP1; type: cell-based; details: compared to h-α-CGRP and h-β-CGRP as controls
T1 construct: All of the full-length cDNAs were subcloned into pcDNA3.1 expression vectors; expressed in transfected cells; host or cells: HEK293T, transient calcium phosphate transfection, pcDNA3.1 vectors
T1 sequence (Q16602 23-461): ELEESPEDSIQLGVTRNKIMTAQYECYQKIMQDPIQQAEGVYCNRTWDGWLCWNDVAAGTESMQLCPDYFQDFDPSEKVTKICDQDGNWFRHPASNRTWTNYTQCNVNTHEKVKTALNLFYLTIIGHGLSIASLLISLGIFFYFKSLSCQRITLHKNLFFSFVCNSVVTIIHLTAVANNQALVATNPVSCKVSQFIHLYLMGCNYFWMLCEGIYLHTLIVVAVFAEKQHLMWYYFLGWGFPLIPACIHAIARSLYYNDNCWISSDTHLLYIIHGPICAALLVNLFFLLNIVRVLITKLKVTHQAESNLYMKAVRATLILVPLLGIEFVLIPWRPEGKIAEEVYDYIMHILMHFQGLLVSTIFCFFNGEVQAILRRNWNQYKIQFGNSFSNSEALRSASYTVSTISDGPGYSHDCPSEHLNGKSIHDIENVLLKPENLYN
T1 sequence (O60894 27-148): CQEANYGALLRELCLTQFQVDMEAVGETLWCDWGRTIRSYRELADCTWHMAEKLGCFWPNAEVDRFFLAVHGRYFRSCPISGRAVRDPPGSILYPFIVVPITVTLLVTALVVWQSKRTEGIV
Source text: The expression vectors for RAMP1, RAMP2, RAMP3, CRLR, CRE-Luc and SRE-Luc were constructed as previously described (McLatchie L. M., et al. (1998) Nature 393:333-339). Human CRLR, RAMP1, and RAMP2 full-length cDNAs were cloned by RT-PCR using RNA obtained from HEK293T cells and CRLR, RAMP1, and RAMP2-specific primers. Human RAMP3 full-length cDNAs were cloned by RT-PCR using RNA from human kidney and RAMP3 specific primers. All of the full-length cDNAs were subcloned into pcDNA3.1 expression vectors.
Human embryonic kidney 293T cells (HEK293T) were maintained in Dulbecco's modified Eagle's medium supplemented with 10% fetal calf serum, 2 mM glutamine, […], at 37° C. in a humidified atmosphere of 95% air and 5% CO2. Transient transfections were performed using calcium phosphate co-precipitation (Mellon P. L., et al. (1981) Cell 27:279-288). Cells in six-well plates or 100-mm Petri dishes were grown to 70% confluence and transfected with 0.1 μg of DNA for CRLR, 0.05 μg for RAMPs or 1 μg for CRE-Luc and SRE-Luc per cm^2. The total amount of DNA transfected in each condition was kept constant by adding empty pcDNA3.1 vector when needed. Twenty hours after transfection, the medium was replaced with fresh medium containing 5 mM sodium butyrate for 24 h and then replaced for an additional 24 h with fresh medium without sodium butyrate. All of the experiments were performed 72 h after transfection to allow correct glycosylation and cell surface targeting of CRLR and RAMPs.
After exposure to various concentrations of CGRP or the CGRP analogs, the cells were lysed and assayed for CRE- or SRE-luciferase activity using the luciferase assay system (Promega), and luminescence was measured using a 96-well luminometer.
The mechanism of action for CGRP at the CRLR/RAMP1 receptor is known to up-regulate cAMP through the gs pathway, and to a lesser extent [Ca^2+] through the gq pathway. […] It is the cAMP pathway that is the primary mechanism of action of CGRP for vasodilation, cardio/renoprotection and immunomodulation.

[3] = test system: non-sedated, non-naïve cynomolgus monkeys; experiment: Intravenous infusion in non-sedated, telemeterized non-human primates: blood pressure, heart rate, ECG (Example 2); type: in vivo
Method: Peptides were synthesized as in Example 1. […] Two non-naïve, telemeterized, male non-human primates (NHP “a” and “b”) were used for the test article(s) dosing regimen. […] Following a stabilized baseline period of approximately 30 minutes, one of the test article(s) was administered as an intravenous infusion via a femoral vein vascular access port (VAP) using a Pegasus PCA infusion pump for a period of 30 or 60 minutes. A minimum period of 30 minutes was allotted for the hemodynamic parameters to return to baseline prior to the next test article infusion dose. The process was repeated for each of the stated test articles. The same procedure was followed for the 1 hour infusion with 1 hour allotted for parameters to return to base line.
The non-human primates were previously surgically prepared with telemetry transducers, type TL11M2-D70-PCT (Data Sciences International). The acquisition and analysis was done using a Ponemah (Version 4.8 or higher) data acquisition and analysis system installed on the hard drive of a computer. The computer was equipped with disk drive for file back up on readable write-once only optical media (CD-R or DVD-R).
Prior to the first dose administration, baseline data was acquired. For each subsequent dose, data was collected for approximately 30 min postdose. Prior to the next dose, the hemodynamic parameters were allowed to return to a stable baseline±10%.
Systolic blood pressure (SYS or SBP), diastolic blood pressure (DBP), mean arterial pressure (MAP), heart rate (HR), and all lead II ECG variables were recorded. The telemetry data files were transferred to an Excel (MicroSoft® Version 2003) spreadsheet. The following variables from the lead II ECG were measured: PR interval, QRS duration, QT interval, RR interval, and QTcF interval (calculated as
A visual inspection of the entire collected ECG waveform for disturbances in rhythm and waveform morphology was performed. The data for selected time points were analyzed and assessed on completion of data acquisition and were the average of at least 30 beats (ABP and ECG) of data at the selected analysis time, when possible. The time points for both hemodynamic and ECG data analysis were an initial 30 min baseline prior to the first dose, at a 10 min during each infusion postdose interval relative to end of each infusion, and time points prior to the next test article infusion for each test compound.
Non-human primates were selected because they have the same RAMP 1-CGRP receptor complex as humans.

[4] = biological target: CRLR/RAMP1 receptor (human, UniProt Q16602 23-461; O60894 27-148); experiment: cell-based or functional assay
Chain of CRLR/RAMP1 receptor (human, UniProt Q16602 23-461; O60894 27-148) (Q16602 23-461, chain 1 of 2): as the sequence (Q16602 23-461) above
Chain of CRLR/RAMP1 receptor (human, UniProt Q16602 23-461; O60894 27-148) (O60894 27-148, chain 2 of 2): as the sequence (O60894 27-148) above

[5] = NHP a, dose day 2, during 30 minute infusions of 0.024 ug/kg/min
[6] = NHP a, dose day 3, during 30 minute infusions of 0.024 ug/kg/min
[7] = NHP a, dose day 3, during 1 hour infusion of 0.024 ug/kg/min
[8] = NHP b, dose day 2, during 30 minute infusions of 0.024 ug/kg/min
[9] = NHP b, dose day 3, during 30 minute infusions of 0.024 ug/kg/min
[10] = NHP b, dose day 3, during 1 hour infusion of 0.024 ug/kg/min
[11] = average of a 2, b 2, a 3, b 3, during 30 minute infusions of 0.024 ug/kg/min
[12] = average of a3, b3, during 1 hour infusion of 0.024 ug/kg/min

Molecule: Cyc-ACNTATCVTHRLAGLLSRSGGVVKSNFVPTNVGSKAF-NH2 (disulfide 2-7 (inferred)) [Peptide V]
Heart rate effect ([1]; at any of the tested doses): no increase in heart rate
increase in heart rate (HR) compared to the control CGRP ([1]; sedated Non Human Primate, IV for 5 minutes at 29/ng/kg/min): reduced increase in heart rate
activity and potency in binding to the CGRP receptor, CRE-Luciferase assay [2]: as equally active and potent as h-α-CGRP and h-β-CGRP
Percent change in HR, a 2 [3, 5]: −19.8%
Percent change in mean BP, a 2 [3, 5]: −20.0%
Percent change in systolic BP, a 2 [3, 5]: −16.2%
Percent change in HR, a 3 [3, 6]: −22.2%
Percent change in mean BP, a 3 [3, 6]: −8.8%
Percent change in systolic BP, a 3 [3, 6]: −6.8%
Percent change in HR at 30 minutes, a3 [3, 7]: −22.2%
Percent change in HR at 60 minutes, a3 1 hr [3, 7]: −5.8%
Percent change in mean systolic BP at 30 minutes, a3 [3, 7]: −8.8%
Percent change in mean systolic BP at 60 minutes, a3 1 hr [3, 7]: −5.3%
Percent change in systolic BP at 30 minutes, a3 [3, 7]: −6.8%
Percent change in systolic BP at 60 minutes, a3 1 hr [3, 7]: −5.8%
Percent change in HR, b 2 [3, 8]: −13.1%
Percent change in mean BP, b 2 [3, 8]: −28.6%
Percent change in systolic BP, b 2 [3, 8]: −27.2%
Percent change in HR, b 3 [3, 9]: −37.3%
Percent change in mean BP, b 3 [3, 9]: −26.4%
Percent change in systolic BP, b 3 [3, 9]: −23.9%
Percent change in HR at 30 minutes, b3 [3, 10]: −37.3%
Percent change in HR at 60 minutes, b3 1 hr [3, 10]: 14.5%
Percent change in mean systolic BP at 30 minutes, b3 [3, 10]: −26.4%
Percent change in mean systolic BP at 60 minutes, b3 1 hr [3, 10]: 2.4%
Percent change in systolic BP at 30 minutes, b3 [3, 10]: −23.9%
Percent change in systolic BP at 60 minutes, b3 1 hr [3, 10]: 2.8%
Percent change in mean HR, a 2 ([3]; Table 14, NHP a, dose day 2, during 30 minute infusions of 0.024 ug/kg/min): −19.8%
Percent change in mean HR, a 3 ([3]; Table 14, NHP a, dose day 3, during 30 minute infusions of 0.024 ug/kg/min): −22.2%
Percent change in mean HR, b 2 ([3]; Table 14, NHP b, dose day 2, during 30 minute infusions of 0.024 ug/kg/min): −13.1%
Percent change in mean HR, b 3 ([3]; Table 14, NHP b, dose day 3, during 30 minute infusions of 0.024 ug/kg/min): −37.3%
Percent change in mean HR, HR ([3]; Table 14, average of a 2, b 2, a 3, b 3, during 30 minute infusions of 0.024 ug/kg/min): −23.1%
Percent change in mean HR at 30 minutes, a3 ([3]; Table 24, NHP a, dose day 3, during 1 hour infusion of 0.024 ug/kg/min): −22.2%
Percent change in mean HR at 30 minutes, b3 ([3]; Table 24, NHP b, dose day 3, during 1 hour infusion of 0.024 ug/kg/min): −37.3%
Percent change in mean HR at 30 minutes, HR T30 ([3]; Table 24, average of a3, b3, during 1 hour infusion of 0.024 ug/kg/min): −29.8%
Percent change in mean HR at 60 minutes, a3 1 hr ([3]; Table 25, NHP a, dose day 3, during 1 hour infusion of 0.024 ug/kg/min): −5.8%
Percent change in mean HR at 60 minutes, b3 1 hr ([3]; Table 25, NHP b, dose day 3, during 1 hour infusion of 0.024 ug/kg/min): 14.5%
Percent change in mean HR at 60 minutes, HR T60 ([3]; Table 25, average of a3, b3, during 1 hour infusion of 0.024 ug/kg/min): 4.4%
Percent change in HR, HR [3, 11]: −23.1%
Percent change in mean BP, BP [3, 11]: −21.0%
Percent change in systolic BP, BP [3, 11]: −18.5%
Percent change in HR at 30 minutes, HR T30 [3, 12]: −29.8%
Percent change in HR at 60 minutes, HR T60 [3, 12]: 4.4%
Percent change in mean systolic BP at 30 minutes, BP T30 [3, 12]: −17.6%
Percent change in mean systolic BP at 60 minutes, BP T60 [3, 12]: −1.5%
Percent change in systolic BP at 30 minutes, T30 [3, 12]: −15.4%
Percent change in systolic BP at 60 minutes, T60 [3, 12]: −1.5%
reduction of BP and HR (Tables 8, 13 and 14, FIG. 11) ([3]; mean BP and HR, 30 minute infusions, 0.024 ug/kg/min): reduced both BP and HR to a greater extent than the positive control αCGRP
effect on heart rate ([3]; non-sedated cynomolgus monkeys, IV infusion): maintenance of pre-administration heart rate, and in some cases, reduction in heart rate
reduction of BP and HR (Tables 8-10, FIG. 10) ([3]; systolic BP and HR, 30 minute infusions, 0.024 ug/kg/min): reduced BP and HR to a greater extent than αCGRP and βCGRP

CRE-Luciferase assay: concentration at which receptors were saturated [4]: 100 nM
Molecule: ACDTATCVTHRLAGLLSRSGGVVKSNFVPTNVGSKAF-NH2 (disulfide 2-7 (inferred); also: acetate salt) [Peptide III, [Ser25] h-α-CGRP]

CRE-Luciferase activity at 10^-10 molar, fold over analogs III and V, h-α-CGRP and h-β-CGRP [4]: 1.5 fold
CRE-Luciferase assay: concentration at which receptors were saturated [4]: 100 nM
Molecule: ACDTATCVTHRLADLLSRSGGVVKSNFVPTNVGSKAF-NH2 (disulfide 2-7 (inferred); also: acetate salt) [Peptide IX, [Asp14, Ser25] h-α-CGRP]

CRE-Luciferase assay: concentration at which receptors were saturated [4]: 100 nM
Molecule: ACNTATCVTHRLAGLLSRSGGVVKSNFVPTNVGSKAF-NH2 (disulfide 2-7 (inferred); also: acetate salt) [Peptide V, [Asn3, Ser25] h-α-CGRP]
